Earlier results as cited in patent US20160311826A1, “SGC STIMULATORS” (IRONWOOD PHARMACEUTICALS, INC., priority 2013, published 2016).

How the values were obtained:
[1] = system: obese mice; settings: cited from earlier work
[2] = system: NO-deficient rats; settings: cited from earlier work
[3] = system: sickle mice; settings: oral, high doses; cited from earlier work
[4] = system: mdx mouse; settings: cited from earlier work
[5] = system: sickle cell disease patients with PHT; settings: cited from earlier work
[6] = system: dystrophin-deficient zebra fish; settings: cited from earlier work
[7] = system: adult sickle cell disease patients; settings: infusions; cited from earlier work

For `O=C(O)CCCCN(CCc1cc(F)ccc1OCc1ccc(-c2ccc(C(F)(F)F)cc2)cc1)Cc1ccc(C(=O)O)cc1` [BAY 60-2770], the overactive bladder [1] is listed as “ameliorates overactive bladder in obese mice”.
In the case of `Nc1nc(-c2nn(Cc3ccccc3F)c3ncccc23)ncc1C1CC1` [BAY-2272], the bladder dysfunction [2] is listed as “protective effects”.
In the case of `N=C(N)NCCC[C@H](N)C(=O)O` [L-aminine], the “Gardos channel activity, dense cell formation, hemolysis, vascular reactivity” value [3] is given as “decrease Gardos channel activity, dense cell formation and homolysis, as well as functional improvements in vascular reactivity”.
In the case of `CCCc1nn(C)c2c(=O)[nH]c(-c3cc(S(=O)(=O)N4CCN(C)CC4)ccc3OCC)nc12` [sildenafil], the cardiac dynamics ([4]; mdx mice) is listed as “improve cardiac dynamics”, the “muscle ischemia, injury and fatigue after a brief bout of exercise” value ([4]; mdx mouse) is listed as “alleviate muscle ischemia, as well as injury and fatigue” and the “PAP and exercise capacity” value ([5]; preliminary studies, sickle cell disease patients with severe PHT) is listed as “improvements in PAP and exercise capacity”. For the same compound, the “serious side effects (Walk-PHaSST trial)” value ([5]; sickle cell disease patients with Doppler-defined PHT, trial stopped prematurely) was “higher frequency of serious side effects, including increased rates of VOE, headache, and visual disturbance” and the “dystrophic skeletal muscle and survival” value [6] was “rescue dystrophic skeletal muscle and prolong survival”.
For `O=NO` [sodium nitrite], the forearm blood flow [7] is listed as “enhanced forearm blood flow”.
